From PubChem BioAssay AID2060331 (Molecular Pharmacology Branch, DTP, NCI, 2025)
Where “and” joins values, the source holds several entries; their conditions need not be identical. Equal values may be shown once.

System: Hs578T multi-cell spheroids, viability
Experiment: Anticancer human tumor Hs578T cell line growth inhibition [IpAb];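 note: drug exposure lasted 7 days before readout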
Settings: for viability, T/C: stronger effect = lower value
Text: Combinatorial screen of targeted agents with ipatasertib and abemaciclib in multi-cell type tumor spheroids
A high-throughput screen of multi-cell type tumor spheroids was designed to identify active combinations of targeted small molecules and ipatasertib or abemaciclib. Complex spheroids include a stromal component modeled by human endothelial cells (HUVEC) and fibroblasts modeled by human mesenchymal stem cells (MSCs). The concentration ranges selected for each drug and investigational agent were based upon clinically achievable concentrations if the clinical Cmax of the agent was known.
Compounds. The drugs and investigational agents: ipatasertib (NSC767898), abemaciclib(NSC768073), selumetinib (NSC741078), trametinib (758246), adavosertib (NSC754352), everolimus (NSC733504), sapanisertib (NSC764658), vemurafenib (NSC761431), venetoclax (NSC766270), copanlisib (NSC809693), apelisib (NSC765974), palbociblib (NSC758247), vemurafenib (NSC761431), dabrafenib (NSC764134), ravoxertinib (NSC781343), BMS-387032 (NSC767048), sotorasib (NSC818433), talazoparib (NSC767125) and afursertib (NSC778305), were obtained from the National Cancer Institute (NCI) Developmental Therapeutics Program Chemical Repository. The FDA-approved anticancer drug set is available from the NCI Developmental Therapeutics Program. […] The stock solutions were prepared in dimethyl sulfoxide (DMSO, Sigma-Aldrich, St. Louis, MO, cat. D2650) at 800-fold the tested concentration and stored at -70 degrees C prior to their use. All drugs and investigational agents were tested over a range starting from a high concentration at or near the clinical Cmax and decreasing in half-log increments. If the clinical Cmax for an agent had not been determined, the highest concentration tested was 10 microM.
NCI60 Cell Culture. NCI60 cell lines were obtained from the NCI Developmental Therapeutics Program Tumor Repository. For each lot of cells, the Repository performed Applied Biosystems AmpFLSTR Identifiler testing with PCR amplification to confirm consistency with the published Identifier STR profile for each cell line. Cells were kept in continuous culture for no more than 20 passages. The optimal seeding densities for each of the cell lines at each time point assessed were determined prior to performing the concentration response studies. Briefly, the NCI60 human tumor lines were grown as monolayers in RPMI 1640 medium supplemented with 10% FBS and 2 mmol/L L-glutamine.
An additional 9 lines were from the NCI60 cell line panel including MDA-MB-231 breast carcinoma, MDA-MB-468 breast carcinoma, MCF7 breast carcinoma, Hs578T breast carcinoma, MALME-3M melanoma, SK-MEL-2 melanoma, SK-OV-3 ovarian carcinoma, DU-145 prostate carcinoma, PC-3 prostate carcinoma, all cell lines along with major genetic alterations are listed on Table 2. Pooled donor human umbilical vein endothelial cells (HUVEC, Lonza, cat. CC-2519) and human mesenchymal stem cells (hMSC, Lonza, cat. PT-2501) were purchased from Lonza (Walkersville, MD).
PDMR cell lines were grown in complete medium (DC medium): Dulbecco's modified Eagle's medium (DMEM)/F12 supplemented with 5% fetal bovine serum (FBS), 2 mM L-glutamine, 100 U/mL penicillin and 100 µg/ml streptomycin, 0.4 µg/ml hydrocortisone, 10 ng/ml epidermal growth factor (EGF) recombinant human protein, 24 µg/mL adenine, and 0.1 mg/mL primocin. During culture from frozen stock vials, PDMR cells were cultured in the same medium containing 10 µM Y-27632 (see Table 3). The PDCs were cultured in complete DMEM/F12 media without 10 microM Y-27632 dihydrochloride for at least two passages prior to the screen. The pooled donor HUVEC and hMSC were cultured in endothelial cell growth medium 2 (PromoCell, Heidelberg, Germany, cat. C-22011) and mesenchymal stem cell growth medium 2 (PromoCell, cat. C-28009), respectively. For all experiments, HUVEC and hMSC were used at passages </=5.
[…]

[1] = curve of first compound, second compound 0.01 µM
[2] = curve of first compound, second compound 0.0316 µM
[3] = curve of first compound, second compound 0.1 µM
[4] = curve of first compound, second compound 0.316 µM
[5] = curve of first compound, second compound 1 µM
[6] = second compound 0.01 µM, first compound 0.0316 µM
[7] = second compound 0.01 µM, first compound 0.1 µM
[8] = second compound 0.01 µM, first compound 0.316 µM
[9] = second compound 0.01 µM, first compound 1 µM
[10] = second compound 0.01 µM, first compound 3.16 µM
[11] = second compound 0.01 µM, first compound 10 µM
[12] = second compound 0.0316 µM, first compound 0.0316 µM
[13] = second compound 0.0316 µM, first compound 0.1 µM
[14] = second compound 0.0316 µM, first compound 0.316 µM
[15] = second compound 0.0316 µM, first compound 1 µM
[16] = second compound 0.0316 µM, first compound 3.16 µM
[17] = second compound 0.0316 µM, first compound 10 µM
[18] = second compound 0.1 µM, first compound 0.0316 µM
[19] = second compound 0.1 µM, first compound 0.1 µM
[20] = second compound 0.1 µM, first compound 0.316 µM
[21] = second compound 0.1 µM, first compound 1 µM
[22] = second compound 0.1 µM, first compound 3.16 µM
[23] = second compound 0.1 µM, first compound 10 µM
[24] = second compound 0.316 µM, first compound 0.0316 µM
[25] = second compound 0.316 µM, first compound 0.1 µM
[26] = second compound 0.316 µM, first compound 0.316 µM
[27] = second compound 0.316 µM, first compound 1 µM
[28] = second compound 0.316 µM, first compound 3.16 µM
[29] = second compound 0.316 µM, first compound 10 µM
[30] = second compound 1 µM, first compound 0.0316 µM
[31] = second compound 1 µM, first compound 0.1 µM
[32] = second compound 1 µM, first compound 0.316 µM
[33] = second compound 1 µM, first compound 1 µM
[34] = second compound 1 µM, first compound 3.16 µM
[35] = second compound 1 µM, first compound 10 µM

`CCCS(=O)(=O)Nc1ccc(F)c(C(=O)c2c[nH]c3ncc(-c4ccc(Cl)cc4)cc23)c1F` + CCN1CCN(Cc2ccc(Nc3ncc(F)c(-c4cc(F)c5nc(C)n(C(C)C)c5c4)n3)nc2)CC1 was tested, and the IC50 [1] was 4380 nM, the IC50 [2] was 4190 nM and the IC50 [3] was 4320 nM. The IC50 [4] was 4670 nM, the IC50 [5] was 5520 nM and the viability, T/C [6] was 96.9%. For the same compound, the viability, T/C [7] was 103%, the viability, T/C [8] was 99.1% and the viability, T/C [9] was 97.4%. For the same compound, the viability, T/C [10] was 67%, the viability, T/C [11] was 8.02% and the viability, T/C [12] was 95.3%. It also gave a viability, T/C [13] of 100%, a viability, T/C [14] of 98.6% and a viability, T/C [15] of 92.4%. The viability, T/C [16] was 64.4%, the viability, T/C [17] was 5.43% and the viability, T/C [18] was 90.8%. The viability, T/C [19] was 87.6%, the viability, T/C [20] was 87.1% and the viability, T/C [21] was 82.5%. It also gave a viability, T/C [22] of 66.4%, a viability, T/C [23] of 6.9% and a viability, T/C [24] of 92.4%. For the same compound, the viability, T/C [25] was 89.5%, the viability, T/C [26] was 87.8% and the viability, T/C [27] was 79.9%. For the same compound, the viability, T/C [28] was 71.7%, the viability, T/C [29] was 11.4% and the viability, T/C [30] was 106%. For the same compound, the viability, T/C [31] was 97.4%, the viability, T/C [32] was 102% and the viability, T/C [33] was 104%. For the same compound, the viability, T/C [34] was 87.1% and the viability, T/C [35] was 10.3%.
For `Cn1ncnc1[C@H]1c2n[nH]c(=O)c3cc(F)cc(c23)N[C@@H]1c1ccc(F)cc1`, the viability, T/C (compound 0.000316 µM) was 94% and 104%, the viability, T/C (compound 0.001 µM) was 101% and 102% and the viability, T/C (compound 0.00316 µM) was 88% and 103%. The viability, T/C (compound 0.01 µM) was 91.7% and 96.2%, the viability, T/C (compound 0.0316 µM) was 90.2% and 96.4% and the viability, T/C (compound 0.1 µM) was 82.2% and 95.2%. The IC50 (curve of compound) was > 100 nM.
With `C=CCn1c(=O)c2cnc(Nc3ccc(N4CCN(C)CC4)cc3)nc2n1-c1cccc(C(C)(C)O)n1` the viability, T/C (compound 0.0316 µM) was 98.6% and 100%, the viability, T/C (compound 0.1 µM) was 77.7% and 83.3% and the viability, T/C (compound 0.316 µM) was 46.2% and 47.5%. For the same compound, the viability, T/C (compound 1 µM) was 26% and 25.8%, the viability, T/C (compound 3.16 µM) was 15.1% and 19.1% and the viability, T/C (compound 10 µM) was 17.7% and 17.6%. The IC50 (curve of compound) was 275 nM and 295 nM.
Work on `Cn1ncc(Cl)c1-c1cc(C(=O)NC(CN)Cc2cccc(F)c2)sc1Cl` (stereo unspecified) + CC(C)NCC(C(=O)N1CCN(c2ncnc3c2C(C)CC3O)CC1)c1ccc(Cl)cc1 yielded an IC50 [3] of 1680 nM, an IC50 [4] of 2070 nM and an IC50 [5] of 1110 nM. The IC50 (curve of first compound, second compound 3.16 µM) was 951 nM, the IC50 (curve of first compound, second compound 10 µM) was 31.6 nM and the viability, T/C [18] was 90.9%. For the same compound, the viability, T/C [19] was 83.2%, the viability, T/C [20] was 70% and the viability, T/C [21] was 56.5%. The viability, T/C [22] was 44.5%, the viability, T/C [23] was 0.16% and the viability, T/C [24] was 51.9%. The viability, T/C [25] was 73.5%, the viability, T/C [26] was 67.1% and the viability, T/C [27] was 54.5%. It also gave a viability, T/C [28] of 45.9%, a viability, T/C [29] of 0.16% and a viability, T/C [30] of 67.3%. For the same compound, the viability, T/C [31] was 62.1%, the viability, T/C [32] was 50.1% and the viability, T/C [33] was 51.6%. The viability, T/C [34] was 39.4%, the viability, T/C [35] was 0.15% and the viability, T/C (second compound 3.16 µM, first compound 0.0316 µM) was 53.2%. It also gave a viability, T/C (second compound 3.16 µM, first compound 0.1 µM) of 53.7%, a viability, T/C (second compound 3.16 µM, first compound 0.316 µM) of 49% and a viability, T/C (second compound 3.16 µM, first compound 1 µM) of 48.6%. It also gave a viability, T/C (second compound 3.16 µM, first compound 3.16 µM) of 41.5%, a viability, T/C (second compound 3.16 µM, first compound 10 µM) of 0.16% and a viability, T/C (second compound 10 µM, first compound 0.0316 µM) of 42.7%. The viability, T/C (second compound 10 µM, first compound 0.1 µM) was 47.3%, the viability, T/C (second compound 10 µM, first compound 0.316 µM) was 43.9% and the viability, T/C (second compound 10 µM, first compound 1 µM) was 52.2%. The viability, T/C (second compound 10 µM, first compound 3.16 µM) was 28.6% and the viability, T/C (second compound 10 µM, first compound 10 µM) was 0.24%.
For `C=CC(=O)N1CCN(c2nc(=O)n(-c3c(C)ccnc3C(C)C)c3nc(-c4c(O)cccc4F)c(F)cc23)C(C)C1` (stereo unspecified), the viability, T/C (compound 0.0316 µM) was 103% and 104%, the viability, T/C (compound 0.1 µM) was 103% and 109% and the viability, T/C (compound 0.316 µM) was 113% and 116%. For the same compound, the viability, T/C (compound 1 µM) was 108% and 111%, the viability, T/C (compound 3.16 µM) was 106% and 95.6% and the viability, T/C (compound 10 µM) was 73.4% and 68.4%. The IC50 (curve of compound) was > 10000 nM.
With `C=CCn1c(=O)c2cnc(Nc3ccc(N4CCN(C)CC4)cc3)nc2n1-c1cccc(C(C)(C)O)n1` + CCN1CCN(Cc2ccc(Nc3ncc(F)c(-c4cc(F)c5nc(C)n(C(C)C)c5c4)n3)nc2)CC1 the IC50 [1] was 366 nM, the IC50 [2] was 376 nM and the IC50 [3] was 459 nM. For the same compound, the IC50 [4] was 1260 nM, the IC50 [5] was 2140 nM and the viability, T/C [6] was 92.1%. For the same compound, the viability, T/C [7] was 86.3%, the viability, T/C [8] was 51.9% and the viability, T/C [9] was 27.9%. It also gave a viability, T/C [10] of 16.8%, a viability, T/C [11] of 17.2% and a viability, T/C [12] of 86.3%. For the same compound, the viability, T/C [13] was 75.3%, the viability, T/C [14] was 53% and the viability, T/C [15] was 31.9%. It also gave a viability, T/C [16] of 21.2%, a viability, T/C [17] of 17.4% and a viability, T/C [18] of 82.6%. For the same compound, the viability, T/C [19] was 72.2%, the viability, T/C [20] was 57.1% and the viability, T/C [21] was 36.4%. For the same compound, the viability, T/C [22] was 24.9%, the viability, T/C [23] was 19.2% and the viability, T/C [24] was 80.4%. It also gave a viability, T/C [25] of 76.9%, a viability, T/C [26] of 69% and a viability, T/C [27] of 55.6%. For the same compound, the viability, T/C [28] was 32.3%, the viability, T/C [29] was 21.4% and the viability, T/C [30] was 94.4%. For the same compound, the viability, T/C [31] was 92.9%, the viability, T/C [32] was 79.4% and the viability, T/C [33] was 65%. It also gave a viability, T/C [34] of 42.5% and a viability, T/C [35] of 24%.
